Test results: ChEMBL document CHEMBL3044658, “Synthesis and analgesic activity of new 1,3,4-oxadiazoles and 1,2,4-triazoles” (2011)

What was measured:
Type in all cases: functional
Mus musculus [1] = assay: Analgesic activity in Mus musculus NMRI (mouse) assessed as inhibition of late phase of formalin-induced nociception at 30 umol/kg, ip administered 30 min before formalin injection relative to mefenamic acid
Mus musculus [2] = assay: Analgesic activity in Mus musculus NMRI (mouse) assessed as inhibition of late phase of formalin-induced nociception at 30 umol/kg, ip administered 30 min before formalin injection relative to control
Mus musculus [3] = assay: Analgesic activity in Mus musculus NMRI (mouse) assessed as inhibition of early phase of formalin-induced nociception at 30 umol/kg, ip administered 30 min before formalin injection relative to control

| Structure (SMILES) | Ratio (Mus musculus [1]) | inhibition in vivo at 30 µmol/kg (Mus musculus [2]) [%] | inhibition in vivo at 30 µmol/kg (Mus musculus [3]) [%] |
| --- | --- | --- | --- |
| Nc1nnc(-c2ccccc2S(=O)(=O)c2ccccc2)o1 | 0.91 | 68.3 | 40.5 |
| Nc1nnc(-c2ccccc2Sc2ccccc2Cl)o1 | 0.89 | 67.1 | 26.7 |
| S=c1[nH]nc(-c2ccccc2Sc2ccccc2)[nH]1 | 1.06 | 79.6 | 49.4 |
| [O-][S+](c1ccccc1)c1ccccc1-c1n[nH]c(=S)[nH]1 (stereo not given) | 0.85 | 63.3 | 31.7 |
| O=S(=O)(c1ccccc1)c1ccccc1-c1n[nH]c(=S)[nH]1 | 0.87 | 64.9 | 31.2 |
| S=c1[nH]nc(-c2ccccc2Sc2ccccc2)o1 | 0.95 | 71.3 | 13.1 |
| [O-][S+](c1ccccc1)c1ccccc1-c1n[nH]c(=S)o1 (stereo not given) | 1.15 | 86.1 | 40.9 |
| O=S(=O)(c1ccccc1)c1ccccc1-c1n[nH]c(=S)o1 | 0.77 | 58 | 41.9 |
| S=c1[nH]nc(-c2ccccc2Sc2ccccc2Cl)o1 | 1.06 | 80.5 | 16.8 |
| Nc1nnc(-c2ccccc2Sc2ccccc2)o1 | 0.85 | 63.7 | 16.6 |
| Nc1nnc(-c2ccccc2[S+]([O-])c2ccccc2)o1 (stereo not given) | 1.07 | 79.9 | 29.4 |
| Cc1cccc(Nc2ccccc2C(=O)O)c1C [MEFENAMIC ACID] |  | 74.9 | 24.1 |
